Reference: patent US8957060B2, “Tumescent antibiotic solution” (priority 2004, dated 2015)
Converted amounts (≈) assume the structure as drawn. Read-outs that look alike come from different tables or passages of the source. Each block holds one molecule with its values, some of them ahead of it.

Legend:
[1] = system: Staphyloccus aureus (MRSA) ATCC 33592; test: Minimum Inhibitory Concentration (MIC), dilution method; conditions: Staphylococcus aureus, 48 h, read-out: MIC end point
[2] = system: Staphyloccus aureus (MRSA) ATCC 33592; test: Minimum Bactericidal Concentration (MBC); type: cell-based; conditions: Staphylococcus aureus, read-out: MBC end point
Text: Determinations of MBC followed the method described in “Report on the Working Party on Antibiotic Sensitivity Testing of the British Society of Antimicrobial Chemotherapy: A Guide to Sensitivity Testing.”

[3] = system: platelet aggregation induced by ADP, epinephrine and collagen; conditions: cited from earlier work
[4] = cited from earlier work
[5] = cited from earlier work; remark: listed apart in the source
[6] = Pharmacokinetics of TAD vs IVAD (cefazolin, metronidazole): AUC and Cmax in TISF and serum
Protocol: A clinical pharmacologic investigation was conducted to compare the pharmacokinetic advantages of two modes of systemic antibiotic delivery, Tumescent antibiotic delivery (TAD), which involves the delivery of a relatively large volume of an antibiotic-containing solution to the subcutaneous compartment, and intravenous antibiotic delivery (IVAD), which results in direct delivery of antibiotics to the blood stream, for prophylaxis of SSI. […] Methods
With Institutional Review Board (IRB) approval, the absorption pharmacokinetics of tumescent antibiotic delivery (TAD) and intravenous antibiotic delivery (IVAD) were tested in human subjects and the antibiotic delivery modes were evaluated with respect to the area under the curve (AUC) of antibiotic concentration as a function of time and peak antibiotic concentration (Cmax) in serum and TISF. 4 female subjects participated in at least one study, one subject volunteered for 2 separate studies. 5 studies were conducted: 3 involved TAD to the abdomen, 1 involved TAD to the hips and outer thighs and 1 involved TAD to the breasts. […] Each of the 5 studies consisted of 2 to 3 pharmacokinetic procedures, for a total of 14 procedures. Any procedures conducted on an individual subject were separated by at least one week. In 13 procedures only IVAD or TAD, was used. In one procedure both IVAD and TAD were used concurrently, with IVAD started and finished within five minutes after completing TAD.
TAD was conducted as described herein. Following TAD, sequential 10 ml samples of tumescent adipose tissue were obtained using a hand-held syringe-liposuction technique. Sampling began immediately after completing the TAD infiltration (T0), and continuing until the patients reported significant discomfort. Liposuction aspirate samples were obtained at 0, 1, 2, 3, 4, 6, and 8 hours in all procedures; in 4 TAD procedures, sampling continued until 10 hours. Sequential serum samples for measurement of antibiotic concentration in serum after TAD ([Serum]TAD) were obtained simultaneously.
For IVAD, the antibiotic was delivered into an antecubital vein. […]

SMILES: Cc1nnc(SCC2=C(C(=O)O)N3C(=O)[C@@H](NC(=O)Cn4cnnn4)[C@H]3SC2)s1 [Cefazolin]
MIC [1]: 250 µg/mL (≈ 550 µM)
MBC ([2]; 24 h, Day 1): 250 µg/mL (≈ 550 µM)
MBC ([2]; 48 h, Day 2): 250 µg/mL (≈ 550 µM)

SMILES: CCN(CC)CC(=O)Nc1c(C)cccc1C [Lidocaine]
concentration that consistently inhibits in-vitro platelet aggregation ([3]; aggregation induced by ADP, epinephrine and collagen): ≥ 0.5 mg/mL
safe systemic concentration with no effect on platelet aggregation [3]: ≤ 6 micrograms/ml
duration of local anesthesia ([4]; 1% or 2% commercial concentrations of lidocaine with epinephrine): 2 to 3 h
persistence of profound surgical local anesthesia ([4]; tumescent local anesthesia (TLA)): 6 to 8 h
dosage limitation approved by the FDA ([5]; infiltration local anesthesia, commercial lidocaine (1%) with epinephrine (1:100,000)): 7 mg/kg
maximum safe mg/kg dosage (estimated) ([5]; tumescent lidocaine, TLA without liposuction, adults): 30 mg/kg

SMILES: Cc1ncc([N+](=O)[O-])n1CCO [Metronidazole]
AUC[Serum]IVAD ([6]; Study 5, 600 mg metronidazole IVAD): 127
period in which serum concentration of metronidazole exceeds 4 μg/ml ([6]; female, human, in vivo): 0 to 12 h

times greater antibiotic exposure in ISF by TAD than by IVAD (150×AUC[ISF]IVAD<AUC[TISF]TAD) ([6]; human, in vivo): 150
SMILES: CO[C@@]1(NC(=O)Cc2cccs2)C(=O)N2C(C(=O)O)=C(COC(N)=O)CS[C@@H]21 [cefoxitin]
